What was measured:
[1] = test system: rat oligodendrocyte progenitor CG4 line; assay: Differentiation assay on rat oligodendrocyte progenitor CG4 line (HCS, mCherry+); type: cell-based; settings: secondary screen of 49 selected compounds, 1 μM, 5 days
How it was run: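 Double-reporter CG4 cells (mCherry in mature oligodendrocytes, EGFP in all lineage stages) proliferated 24 h, then given compounds at 1 μM for 5 days of differentiation, ⅔ medium changed at day 3. 9cis-RA as positive control, basal medium and 0.1% DMSO as negative; triplicates imaged by HCS, 35 fields/well.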

[2] = test system: human iPS-derived neuroprecursors; assay: Differentiation of human iPS-derived neuroprecursors into MBP+ oligodendrocytes; type: cell-based; settings: 1 μM in minimal medium, p<0.05
How it was run: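 Human iPS-derived NPCs with doxycycline-inducible SOX10/OLIG2/NKX6.2 were differentiated, replated on day 7, then treated in minimal medium with compound at 1 μM (DMSO vehicle negative control, 60 ng/mL T3 positive control) until fixation on day 21. MBP+ cells were counted manually by immunocytochemistry against DAPI-counted nuclei.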

SMILES | CG4 differentiation compared with 9cis-RA positive control [1] | differentiation into MBP+ oligodendrocytes ([2]; Hydrochloride) | differentiation into MBP+ oligodendrocytes [2]
CCOC(=O)[C@@H](N)CCC(=O)N[C@@H](CSCc1ccccc1)C(=O)N[C@@H](C(=O)OCC)c1ccccc1.Cl [Ezatiostat hydrochloride, Ezatiostat Hydrochloride] | promoting differentiation significantly higher than 9cis-RA positive control | promote significantly (p<0.05) the differentiation into MBP+ oligodendrocytes | 
CC(=O)[C@H]1CC[C@H]2[C@@H]3CCC4=CC(=O)CC[C@]4(C)[C@H]3CC[C@]12C [Progesterone] | promoting differentiation significantly higher than 9cis-RA positive control |  | promote significantly (p<0.05) the differentiation into MBP+ oligodendrocytes
CC(=O)N1CCN([C@H]2CCN(C(=O)N(C)[C@H](C)c3cc(C(F)(F)F)cc(C(F)(F)F)c3)[C@@H](c3ccc(F)cc3C)C2)CC1 [Casopitant] | promoting differentiation significantly higher than 9cis-RA positive control |  | promote significantly (p<0.05) the differentiation into MBP+ oligodendrocytes
NCCCC[C@H](NC(=O)[C@@H](Cc1cc(Br)c(O)c(Br)c1)NC(=O)N1CCC(N2Cc3ccccc3NC2=O)CC1)C(=O)N1CCN(c2ccncc2)CC1 [Olcegepant] | promoting differentiation significantly higher than 9cis-RA positive control |  | promote significantly (p<0.05) the differentiation into MBP+ oligodendrocytes
CC1(C)CCC(C)(C)c2cc(NC(=O)c3ccc(C(=O)O)cc3)ccc21 [Tamibarotene] | promoting differentiation significantly higher than 9cis-RA positive control |  | 
O=C(c1ccc(CN2CCOCC2)cc1)N1CCN(C2CC2)CC1 [Bavisant] | promoting differentiation significantly higher than 9cis-RA positive control |  | promote significantly (p<0.05) the differentiation into MBP+ oligodendrocytes
C[C@H](Nc1cc(-c2cnn(C)c2)cc(Nc2cnccn2)n1)c1ccc(F)cc1 [NS-018] | promoting differentiation significantly higher than 9cis-RA positive control |  | promote significantly (p<0.05) the differentiation into MBP+ oligodendrocytes
O=C(NOC[C@H](O)CO)c1ccc(F)c(F)c1Nc1ccc(I)cc1F [PD-0325901] | promoting differentiation significantly higher than 9cis-RA positive control |  | promote significantly (p<0.05) the differentiation into MBP+ oligodendrocytes

Source: patent publication US20240148745A1, “COMPOUNDS FOR USE IN PROGRESSIVE MULTIPLE SCLEROSIS” (FONDAZIONE CENTRO SAN RAFFAELE, priority 2021, published 2024)
